In patent US20240058291A1, “COMPOSITION FOR CONTROLLING SUGAR, CONTAINING ATYPICAL PKC ACTIVATOR” (INDUSTRY-ACADEMIC COOPERATION FOUNDATION, YONSEI UNIVERSITY, priority 2021, published 2024):

Experiments:
human pancreatic tumors = details: orally administered; cited from earlier work
db/db mice [1] = experiment: Intraperitoneal glucose tolerance test (IPGTT) in diabetic model mice on day 17; format: in vivo
Experimental: Each of prostratin (0.5 mg/kg) and ingenol (1 μg/kg) was intraperitoneally injected daily for 40 days into db/db mice (Jackson Laboratory), known as a representative diabetes model due to deficiency of the leptin receptor, and then the body weight of each mouse was measured. On day 17 after drug administration, an intraperitoneal glucose tolerance test (IPGTT) was performed. […] In the group to which 1 μg/kg of ingenol was administered, the glucose improvement effect appeared at 240 minutes after glucose administration.

IEC-18 cells [2] = experiment: Intracellular glucose (2-DG) uptake, IEC-18 cells; format: cell-based; details: 100 nM
Experimental: (§1) IEC-6 cells and IEC-18 cells were treated with each of prostratin and ingenol (100 nM) for 10 minutes, and then uptake of 2-deoxy-D-glucose (2-DG) in the collected cell lysates was analyzed. By measuring the glucose concentration, changes in glucose uptake (2-DG uptake) by treatment with each of prostratin and ingenol were determined. The amount of glucose was measured after treatment with each of prostratin and ingenol in a low-concentration glucose medium and serum-free DMEM for 24 hours. Glucose levels in the IEC-6 and IEC-18 cells were detected using a Glucose Assay Kit (Cayman Chemical) according to the manufacturer's instructions. Absorbance signals were measured with a Gen5 spectrophotometer (BioTek, Winooski, VT, USA).

db/db mice [3] = experiment: 18FDG absorption and excretion in intestines of diabetic model mice; format: in vivo; details: 0.5 mg/kg for 1 month
Experimental: The intestines of db/db mice (Jackson Laboratory) to which 0.5 mg/kg of prostratin had been administered for 1 month were harvested and radiographed for 18FDG (fluorodeoxyglucose, DuChemBio). 18FDG was purchased from DuChemBio and 200 μCi was injected into each mouse via the tail vein. In addition, 18FDG in a fecal sample obtained by washing the harvested small intestine with 5 mL of PBS was measured, and 18FDG uptake of the duodenum, jejunum, and ileum of the small intestine was measured with a gamma counter.

IEC-18 cells [4] = experiment: Western blot of GLUT transporters after treatment, IEC-18 cells; format: cell-based; details: for GLUT1 phosphorylation: 30, 100 and 300 nM, 30 minutes, Western blot; for expression of p-GLUT1 and GLUT1: compared to Na/K ATPase
Experimental: (§2) For culture of IEC-6 cells (ATCC CRL-1592) and IEC-18 cells (ATCC CRL-1589), which are intestinal epithelial cells, the cells were cultured using Dulbecco's modified Eagle medium (DMEM) supplemented with 10% fetal bovine serum (FBS) and penicillin-streptomycin at 37° C. in a humidified atmosphere containing 10% CO2 and 90% air, and were subcultured every 3 to 4 days. […] When the cell density reached 1.5×10^5 cells/cm^2 after 6 days, the cultures were collected and used. Prostratin was purchased from Sigma-Aldrich (Cat. No. P0077) and used. Ingenol was purchased from Sigma-Aldrich (Cat. No. SML1318) and used. IEC-6 cells and IEC-18 cells were treated with each of prostratin and ingenol at 30 nM, 100 nM, and 300 nM for 30 minutes, cell lysates were collected, and protein expression levels thereof were analyzed by Western blotting. Western blot analysis was performed as follows. Total cell protein lysates were prepared and subjected to Western blot analysis according to standard procedures. Briefly, cells were chilled on ice, washed twice with ice-cold phosphate-buffered saline, and lysed in buffer containing 1 mM. phenylmethylsulfonyl fluoride and lx protease inhibitor (Sigma-Aldrich). Protein concentration was measured with a Bradford assay kit (Bio-Rad, Hercules, CA, USA). Equal amounts of protein from the cell lysates were resolved by sodium dodecyl sulfate polyacrylamide gel electrophoresis and transferred to membranes which were then incubated with anti-PKCα (Cell Signaling Technology, USA), anti-PKCδ (Cell Signaling Technology, USA), anti-PKCζ (Cell Signaling Technology, USA), anti-p-GLUT1 (Abcam, GB), anti-GLUT1 (Abcam, GB) and anti-GLUT2 (Novus Biological, USA) as primary antibodies overnight at 4° C. The blots were washed 3 times with TBST (Tris-buffered saline containing 0.05% Tween 20) and then incubated with horseradish peroxidase (HRP)-conjugated secondary antibodies for 1 hour at 25° C. As the secondary antibodies, donkey anti-rabbit IgG-HRP antibody (1:5000, Santa Cruz) and donkey anti-mouse IgG-HRP antibody (1:5000, Santa Cruz) were used. Immunoreactivity was detected with SuperSignal West Pico Chemiluminescent Substrate (Thermo Fisher Scientific, MA, USA).

IEC-6 cell line [5] = experiment: Western blot of p-GLUT1 after PKC siRNA transfection and prostratin treatment; format: cell-based; details: prostratin 1 μM
Experimental: To identify which PKC subtypes induce GLUT1 activation by each of prostratin and ingenol, the IEC-6 cell line was transfected with 50 nM of siRNA for each of conventional PKC (PKCα), novel PKC ([…]), and atypical PKCs (PKCζ and […]) using RNAiMax (Invitrogen). After 48 hours, the cells were treated with prostratin (1 μM), and total protein was extracted and subjected to Western blotting. The siRNA sequences used are as follows.

IEC-6 cells [6] = experiment: Glucose uptake with and without PKC zeta inhibitor ZIP, IEC-6 cells; format: cell-based; details: 100 nM
db/db mice [7] = experiment: Electron microscopy of apical membrane of jejunum lumen of diabetic model mice; format: in vivo; details: 0.5 mg/kg for 1 month, electron microscope
C57BL6 mice [8] = experiment: IP glucose tolerance test after single subcutaneous injection; format: in vivo; details: 2 g/kg glucose
Experimental: After 12 C57BL6 mice were fasted for 12 hours, fasting blood glucose was measured by performing an intraperitoneal glucose test. Thereafter, ingenol (4 μg/kg) and prostratin (1 mg/kg) was injected subcutaneously once into the ingenol-administered group (4 mice) and the prostratin-administered group, respectively, and 2 g of glucose per kg of mouse (2 g/kg glucose) was diluted in physiological saline and intraperitoneally administered to each mouse. Thereafter, an IP glucose tolerance test was performed at 15 minutes, 30 minutes, 60 minutes, 90 minutes, and 120 minutes.

IEC-6 cells [9] = experiment: Intracellular glucose (2-DG) uptake, IEC-6 cells; format: cell-based; details: 100 nM
Experimental: as §1

IEC-6 cell line [10] = experiment: 2DG uptake after PKC siRNA transfection; format: cell-based; details: prostratin 1 μM or ingenol 100 nM
Experimental: In order to identify which PKC subtypes induce increased glucose uptake (2DG uptake) in IEC cells by treatment with each of prostratin and ingenol, the IEC-6 cell line was transfected with siRNA for each of conventional PKC (PKCα), novel PKC ([…]), and atypical PKCs (PKCζ and […]) as described in Example 7. After 48 hours, the cells were treated with prostratin (1 μM) or ingenol (100 nM), and 2DG uptake therein was analyzed.

db/db mice [11] = experiment: Immunohistochemical staining of PKC zeta in small intestine of diabetic model mice; format: in vivo; details: 0.5 mg/kg for 1 month
Experimental: After administration of prostratin (0.5 mg/kg) or vehicle to db/db mice for 1 month, the small intestine was harvested, and the duodenum, jejunum, and ileum were fixed with formalin, subjected to immunohistochemical staining with anti-PKC zeta antibody (Abcam, USA), and imaged with an optical microscope at 100× and 400× magnifications.

IEC-6 cells [12] = experiment: Western blot of GLUT transporters after treatment, IEC-6 cells; format: cell-based; details: for GLUT1 phosphorylation: 30, 100 and 300 nM, 30 minutes, Western blot; for expression of p-GLUT1 and GLUT1: compared to Na/K ATPase
Experimental: as §2

IEC-18 cells [13] = experiment: Western blot of PKC and GLUT1 activation over time, IEC-18 cells; format: cell-based; details: prostratin 2 μM; for activities of PKC zeta and GLUT1: ingenol 0.1 μM, 0, 15 and 60 minutes
Experimental: After treatment of IEC-18 cells with each of prostratin (2 μM) and ingenol (0.1 μM) for 0, 15, and 60 minutes, the expression of PKC and GLUT1 proteins was analyzed by Western blotting.

db/db mice [14] = experiment: Body weight in diabetic model mice, daily intraperitoneal injection for 40 days; format: in vivo
Experimental: Each of prostratin (0.5 mg/kg) and ingenol (1 μg/kg) was intraperitoneally injected daily for 40 days into db/db mice (Jackson Laboratory), known as a representative diabetes model due to deficiency of the leptin receptor, and then the body weight of each mouse was measured.

C57BL6 mice [15] = experiment: IP glucose tolerance test after 2 weeks of administration by osmotic pump; format: in vivo; details: 0.5 mg/kg and 1 mg/kg for 2 weeks, 2 g/kg glucose
Experimental: Prostratin was administered to C57BL6 mice at concentrations of 0 mg/kg, 0.5 mg/kg, and 1 mg/kg for 2 weeks using an osmotic pump, followed by fasting for 12 hours. Then, 2 g of glucose per kg of mouse (2 g/kg glucose) was diluted in physiological saline and intraperitoneally administered to each mouse. Thereafter, an IP glucose tolerance test was performed at 15 minutes, 30 minutes, 60 minutes, 90 minutes, and 120 minutes.

IEC-18 cells [16] = experiment: Glucose uptake with and without PKC zeta inhibitor ZIP, IEC-18 cells; format: cell-based; details: 100 nM
HEK293 = experiment: Western blot of PKC zeta, p-GLUT1 and GLUT1 with ingenol, HEK293 cells; format: cell-based; details: vs empty vector negative control
Experimental: (§3) Transfected cell lines were generated by transfection such that PKC zeta was transiently overexpressed in IEC-6 cells, IEC-18 cells, and HEK293 (ATCC CRL-1573) cells. A rat PKC zeta-expressing plasmid (Korea Gene Bank) was subcloned into pCDNA3.1 (Addgene, USA). […] Cells were transfected with the expression plasmid using Polyjet transfection reagent (SignaGen) according to the manufacturer's instructions. Transfected cells were cultured for 48 hours at 37° C. before lysis and treated with ingenol (0.1 μM). Cell lysates were collected for the empty vector-infected cell group as a control group, the PKC zeta-transfected cell group, the wild-type cell group treated with ingenol, and the transfected cell group treated with ingenol, and subjected to Western blotting. In Western blotting, Na/K ATPase was used as a membrane loading control.

IEC-18 cells [17] = experiment: Western blot of PKC zeta, p-GLUT1 and GLUT1 with ingenol, IEC-18 cells; format: cell-based; details: ingenol 0.1 μM, vs empty vector negative control
Experimental: as §3

IEC-6 cells [18] = experiment: Western blot of PKC zeta, p-GLUT1 and GLUT1 with ingenol, IEC-6 cells; format: cell-based; details: ingenol 0.1 μM, vs empty vector negative control
Experimental: as §3

[19] = atypical PKC (PKCζ and PKC↓)-knockdown group

SMILES: CC(=O)O[C@@]12C[C@@H](C)[C@@]3(O)[C@@H](C=C(CO)C[C@]4(O)C(=O)C(C)=C[C@@H]34)[C@@H]1C2(C)C [prostratin]
- effect on human pancreatic tumors (human pancreatic tumors): inhibited
- glucose improvement (IPGTT) vs vehicle group (db/db mice [1]; prostratin 0.5 mg/kg, entire period of 30 to 240 minutes): superior to that in the control group
- intracellular glucose (2-DG) uptake (IEC-18 cells [2]): increased
- glucose absorption in duodenum, jejunum and ileum (18FDG, gamma counter) (db/db mice [3]): more than doubled
- glucose absorption in the small intestine (18FDG radiographs) vs vehicle group (db/db mice [3]): significantly higher
- glucose excretion in the fecal samples (18FDG) (db/db mice [3]): higher
- GLUT1 phosphorylation (IEC-18 cells [4]): promoted
- expression of p-GLUT1 and GLUT1 (IEC-18 cells [4]): increased
- expression of GLUT1 (p-GLUT1) (IEC-6 cell line [5]; negative control group (siNeg)): increased
- expression of GLUT1 (p-GLUT1) (IEC-6 cell line [5]; siRNA for atypical PKCs (PKCζ and PKC↓)): did not increase
- 6-phosphate glucose in the cells (IEC-6 cells [6]): increased
- glycocalyx near the microvilli of the jejunum vs vehicle (db/db mice [7]): secreted more
- number of mitochondria in the small intestine cells (db/db mice [7]): increased
- glucose metabolism (IP glucose tolerance test) compared to Vehicle (C57BL6 mice [8]; prostratin 1 mg/kg subcutaneously once, at 30 and 60 minutes): significantly improved
- intracellular glucose (2-DG) uptake (IEC-6 cells [9]): increased
- 2DG uptake (IEC-6 cell line [10]; [19]): not increased
- 2DG uptake (IEC-6 cell line [10]; negative control group (siNeg)): increased
- PKC zeta staining in the duodenum vs vehicle (db/db mice [11]): no significant difference
- location of PKC zeta in the jejunum and ileum (db/db mice [11]): tended to be concentrated in the apical membrane of the lumen
- GLUT1 phosphorylation (IEC-6 cells [12]): promoted
- expression of p-GLUT1 and GLUT1 (IEC-6 cells [12]): increased
- translocation of PKC and GLUT1 to the cell membrane, prostratin compared with ingenol (IEC-18 cells [13]; ingenol 0.1 μM): more rapidly translocated
- activities of PKC zeta and GLUT1 (IEC-18 cells [13]): increased
- weight loss compared to vehicle group (db/db mice [14]; prostratin 0.5 mg/kg i.p. daily, on and after day 11): showed statistical significance
- area values under the glucose change curve for 2 hours (C57BL6 mice [15]): improved
- 6-phosphate glucose in the cells (IEC-18 cells [16]): increased

SMILES: C/C=C(/C)C(=O)O[C@H]1C(C)=C[C@]23C(=O)[C@@H](C=C(CO)[C@@H](O)[C@]12O)[C@H]1[C@@H](C[C@H]3C)C1(C)C [ingenol-3-angelate]
- glucose improvement effect (IPGTT) (db/db mice [1]; ingenol 1 μg/kg, at 240 minutes after glucose administration): appeared
- intracellular glucose (2-DG) uptake (IEC-18 cells [2]): increased
- GLUT1 translocation (HEK293): translocated
- PKC zeta activation and translocation to the cell membrane (HEK293): activated and translocated to the cell membrane
- GLUT1 phosphorylation (IEC-18 cells [4]): promoted
- expression of p-GLUT1 and GLUT1 (IEC-18 cells [4]): increased
- 6-phosphate glucose in the cells (IEC-6 cells [6]): increased
- GLUT1 translocation (IEC-18 cells [17]): translocated
- PKC zeta activation and translocation to the cell membrane (IEC-18 cells [17]): activated and translocated to the cell membrane
- GLUT1 translocation (IEC-6 cells [18]): translocated
- PKC zeta activation and translocation to the cell membrane (IEC-6 cells [18]): activated and translocated to the cell membrane
- glucose metabolism (IP glucose tolerance test) compared to negative control (C57BL6 mice [8]; ingenol 4 μg/kg subcutaneously once): improved
- intracellular glucose (2-DG) uptake (IEC-6 cells [9]): increased
- 2DG uptake (IEC-6 cell line [10]; [19]): not increased
- 2DG uptake (IEC-6 cell line [10]; negative control group (siNeg)): increased
- GLUT1 phosphorylation (IEC-6 cells [12]): promoted
- expression of p-GLUT1 and GLUT1 (IEC-6 cells [12]): increased
- activities of PKC zeta and GLUT1 (IEC-18 cells [13]): increased
- weight loss (db/db mice [14]; ingenol 1 μg/kg i.p. daily, increased to 2 μg/kg on day 28, day 30): showed statistical significance
- 6-phosphate glucose in the cells (IEC-18 cells [16]): increased
